Data published in US20060153913A1, “Solid formulation with improved solubility and stability, and method for producing said formulation” (priority 2004, published 2006).

Assays:
Format in all cases: physicochemical
[1] = Dissolution test, second method of Japanese Pharmacopoeia (paddle method); settings: after 60 minutes; paddle method 50 rpm, 0.1 w/v % sodium lauryl sulfate solution 900 mL, 37° C.
Experimental: Dissolution test was performed following the second method of Japanese Pharmacopoeia dissolution test method (paddle method, 50 rpm) using a 0.1 w/v % deaerated sodium lauryl sulfate solution (900 mL, 37° C.). The tablets (133.00 mg/tablet; containing 5 mg of bulk drug) produced in Example 1 were put into the test solution as they were. For referential control, the bulk drug consisting crystal was put into the test solution as it was. The temperature was adjusted to 37±0.1° C.

[2] = Stability test under heating condition at 80° C. (HPLC impurities, powder X-ray diffraction)
Experimental: Each of the powder formulations obtained in Example 3 was tested under heating condition at 80° C. The purity was determined by high performance liquid chromatography (measured wave length; 242 nm). The state of crystallization was estimated by powder X-ray diffraction.

[3] = Stability test under humid condition at 40° C.; settings: Immediately after Formulation
Experimental: Each of the powder formulations obtained in Example 3 was tested under heating condition at 40° C. under humid condition.

[4] = 80° C., Open Condition, After 3 days

CCOC(=O)C(COC(=O)Cc1ccc(NC(=O)c2ccccc2-c2ccc(C(F)(F)F)cc2)c(C(=O)N(C)C)c1)(C(=O)OCC)c1ccccc1 [MTP Inhibiting Compound, diethyl 2-(2-{3-dimethylcarbamoyl-4-[(4′-trifluoromethyl-biphenyl-2-carbonyl)-amino]-phenyl}-acetoxymethyl)-2-phenyl-malonate]
dissolution [1]: did not dissolve
Impurities Max (%) [2, 4]: 0.08%
Impurities Total (%) [2, 4]: 0.24%
Impurities Max (%) ([2]; Immediately after Formulation): 0.28%
Impurities Total (%) ([2]; Immediately after Formulation): 0.40%
Impurities Max (%) [3]: 0.11%
Impurities Total (%) [3]: 0.40%
